Legend:
[1] = Clinical dose-escalation trial of Compound I: pharmacokinetics; format: in vivo, human
Description: (§1) A randomized, double-blind, placebo-controlled, dose-escalation trial of Compound I in 24 adult β-thalassemia patients in which the safety, tolerability, PK and cumulative iron balance of 12 days of Compound I are assessed (10 mg/kg (n=5), 20 mg/kg (n=6), 40 mg/kg (n=7), and placebo (n=6).

[2] = system: adult β-thalassemia patients; assay: Clinical dose-escalation trial of Compound I: iron balance and efficiency of chelation; format: in vivo, human
Description: as §1
Efficiency of chelation is based on average daily net iron excretion, and is calculated as the ratio between […], relative to body weight. The theoretical amount of iron is obtained from the consideration that two molecules of Compound I are needed to chelate a single atom of iron. The molecular weight of Compound I being 373.4, and that of iron 55.85. The efficiency is therefore calculated as:
Efficiency=(Feexcr*2*373.4)/(DoseCompound×55.85)×100%) • DoseCompound and Feexcr are given in mg/kg body weight.

[3] = system: Long-Evans cinnamon (LEC) rat; assay: Spontaneous acute hepatitis in LEC rat model; format: in vivo; conditions: male LEC rats, oral 14 and 28 mg/kg/day
Description: Long-Evans cinnamon (LEC) rat is a mutant strain displaying hereditary hepatitis and spontaneous liver cancer. Compound I has been tested for efficacy on acute hepatitis in LEC rat model.
Methods: Compound I was administered orally to male LEC rats by gavage on does of 0, 14 and 28 mg/kg/day, starting at 6-week-old and continuing till 18-week-old. Each four rats were sacrificed on 9, 12, 14, 16 and 18-week-old in Compound I—treated groups and control group.
On sacrificing, peripheral blood was collected for monitoring the biochemical markers, including the serum alanine transaminase (ALT). Liver tissue were histologically examined.

[4] = system: thalassemia patients (iron-overloaded); assay: ALT values of thalassemia patients after one year of treatment; format: in vivo, human
Description: (§2) Patients were iron-overloaded patients and were treated with different doses of Compound I for one year.
(§3) ALT was measured according to standard biomedical techniques, e.g. using the International Federation of Clinical Chemistry reference method as described in Brinkmann T, Dreier J, Diekmann J, Gotting C, Klauke R, Schumann G, Kleesiek K. Alanine aminotransferase cut-off values for blood donor screening using the new International Federation of Clinical Chemistry reference method at 37 degrees C. Vox Sang. 2003 85(3): 159-64.
(§4) The baseline ALT value is defined as the patient ALT value determined for the patient at the stage of enrollment in the clinical trial, i.e. the ALT baseline value is the ALT value of the patient before starting Compound I treatment.

[5] = system: rare anemia patients (iron-overloaded); assay: ALT values of rare anemia patients after one year of treatment; format: in vivo, human
Description: as §2, §3, §4

In the case of `O=C(O)c1ccc(-n2nc(-c3ccccc3O)nc2-c2ccccc2O)cc1` [Compound I, 4-[3,5-Bis-(2-hydroxyphenyl)-[1,2,4]-triazol-1-yl]benzoic acid], the “Exposure (Cmax and AUC) increase with dose” value ([1]; after single dose administration) is reported as “slightly over-proportionally”, the “Exposure (Cmax and AUC) increase with dose” value ([1]; during steady state) is reported as “approximately proportional” and the half-life ([1]; human, blood, at steady state, read-out: mean elimination half-life t1/2) is reported as 720 to 780 min. For the same compound, the absorption ([1]; β-thalassemia patients, 10, 20, 40 mg/kg, 12 days) was “rapidly absorbed”, the “Negative iron balance (average daily net iron excretion)” value (from here on “Negative iron balance”) ([2]; 10 mg/kg dose) was “approximately 0.127 mg/kg/day” and the efficiency of chelation ([2]; 10 mg/kg dose group) was 16%. For the same compound, the efficiency of chelation ([2]; 20 mg/kg) was 22%, the “Negative iron balance” value ([2]; 20 mg/kg dose) was ~0.343 mg/kg/day and the efficiency of chelation ([2]; 40 mg/kg) was 15%. For the same compound, the “Negative iron balance” value ([2]; 40 mg/kg dose) was ~0.564 mg/kg/day, the iron excretion ([2]; iron balance studies, almost entirely in the feces) was “dose-dependent increase” and the “Hepatic iron accumulation assessed by Prussian blue staining vs control group” value [3] was “markedly reduced”. The “serum ALT level vs control group” value ([3]; at 18-week-old) was “significantly lower”, the “Mean of ALT” value ([4]; 5 mg/kg/day) was 35.25 Units/liter and the “Mean of ALT” value ([4]; 10 mg/kg/day) was 26.62 Units/liter. The “Mean of ALT” value ([4]; 20 mg/kg/day) was 3.17 Units/liter, the “Mean of ALT” value ([4]; 30 mg/kg/day) was −23.56 Units/liter and the “Mean of ALT” value ([5]; 5 mg/kg/day) was 67.42 Units/liter. For the same compound, the “Mean of ALT” value ([5]; 10 mg/kg/day) was 14.22 Units/liter, the “Mean of ALT” value ([5]; 20 mg/kg/day) was −3.27 Units/liter and the “Mean of ALT” value ([5]; 30 mg/kg/day) was −14.19 Units/liter.

Reference: patent US20100098662A1, “TREATMENT OF LIVER DISEASES IN WHICH IRON PLAYS A ROLE IN PATHOGENESIS” (priority 2005, published 2010)
